Data: ChEMBL document CHEMBL5620347, “Discovery of thiohydantoin based antagonists of androgen receptor with efficient degradation for the treatment of prostate cancer” (Eur J Med Chem, 2023)

Assays:
LNCaP [1] = test: Antitumor activity against human LNCaP cells xenografted in BALB/c nude mouse assessed as tumor growth inhibition at 30 mg/kg, ip measured every 2 days for 28 days relative to control; conditions: 672 h, read-out: TGI
DU-145 = test: cells; conditions: Homo sapiens, DU-145, 72 h
Description: Cytotoxicity against androgen receptor independent human DU-145 cells assessed as inhibition of cell growth incubated for 72 hrs by MTT assay

LNCaP [2] = test: cells; conditions: Homo sapiens, 72 h
Description: Cytotoxicity against androgen receptor dependent human LNCaP cells assessed as inhibition of cell growth incubated for 72 hrs by MTT assay

CWR22R = test: Antitumor activity against human 22Rv1 cells xenografted in BALB/c nude mouse assessed as tumor growth inhibition at 30 mg/kg, ip measured every 2 days for 28 days relative to control; conditions: 22Rv1, 672 h, read-out: TGI
[3] = AUC (0 to infinity) in Sprague-Dawley rat at 20 mg/kg, po measured upto 1440 mins by LC-MS/MS analysis; type: ADME, organism-based; conditions: in vivo, 24 h
[4] = Volume of distribution at steady state in Sprague-Dawley rat at 20 mg/kg, po measured upto 1440 mins by LC-MS/MS analysis; type: ADME, organism-based; conditions: in vivo, 24 h
[5] = Volume of distribution at steady state in Sprague-Dawley rat at 5 mg/kg, iv measured upto 1440 mins by LC-MS/MS analysis; type: ADME, organism-based; conditions: in vivo, read-out: Vdss
[6] = AUC (0 to infinity) in Sprague-Dawley rat at 5 mg/kg, iv measured upto 1440 mins by LC-MS/MS analysis; type: ADME, organism-based; conditions: in vivo
[7] = Cmax in Sprague-Dawley rat at 20 mg/kg, po measured upto 1440 mins by LC-MS/MS analysis; type: ADME, organism-based; conditions: in vivo
[8] = Half life in Sprague-Dawley rat at 20 mg/kg, po measured upto 1440 mins by LC-MS/MS analysis; type: ADME, organism-based; conditions: in vivo
[9] = Toxicity in BALB/c mouse assessed as effect on serum uric acid level at 30 mg/kg, ip measured after 3 days by biochemical analysis; type: organism-based; conditions: in vivo, 72 h, time 3 day
[10] = Toxicity in BALB/c mouse assessed as effect on serum AST level at 30 mg/kg, ip measured after 3 days by biochemical analysis; type: organism-based; conditions: in vivo, 72 h, time 3 day
[11] = Bioavailability in Sprague-Dawley rat at 20 mg/kg, ip measured upto 1440 mins by LC-MS/MS analysis; type: ADME, organism-based; conditions: in vivo
[12] = Toxicity in BALB/c mouse assessed as appearance of lesions in lung at 30 mg/kg, ip measured after 3 days by H and E staining based analysis; type: organism-based; conditions: in vivo, 72 h, time 3 day
[13] = Toxicity in BALB/c mouse assessed as appearance of lesions in spleen at 30 mg/kg, ip measured after 3 days by H and E staining based analysis; type: organism-based; conditions: in vivo, 72 h, time 3 day
[14] = Toxicity in BALB/c mouse assessed as effect on serum ALT level at 30 mg/kg, ip measured after 3 days by biochemical analysis; type: organism-based; conditions: in vivo, 72 h, time 3 day
[15] = Toxicity in BALB/c nude mouse xenografted with human 22Rv1 cells assessed as reduction in body weight at 30 mg/kg, ip measured every 2 days for 28 days; type: organism-based, CWR22R; conditions: in vivo, 672 h, time 28 day
[16] = Clearance in Sprague-Dawley rat at 20 mg/kg, po measured upto 1440 mins by LC-MS/MS analysis; type: ADME, organism-based; conditions: in vivo, 24 h
[17] = Toxicity in BALB/c mouse assessed as appearance of lesions in heart at 30 mg/kg, ip measured after 3 days by H and E staining based analysis; type: organism-based; conditions: in vivo, 72 h, time 3 day
[18] = Toxicity in BALB/c mouse assessed as appearance of lesions in liver at 30 mg/kg, ip measured after 3 days by H and E staining based analysis; type: organism-based; conditions: in vivo, 72 h, time 3 day
[19] = Toxicity in BALB/c mouse assessed as appearance of lesions in kidney at 30 mg/kg, ip measured after 3 days by H and E staining based analysis; type: organism-based; conditions: in vivo, 72 h, time 3 day
[20] = AUC (0 to infinity) in Sprague-Dawley rat at 20 mg/kg, ip measured upto 1440 mins by LC-MS/MS analysis; type: ADME, organism-based; conditions: in vivo
[21] = Toxicity in BALB/c mouse assessed as effect on BUN level at 30 mg/kg, ip measured after 3 days by biochemical analysis; type: organism-based; conditions: in vivo, 72 h, time 3 day
[22] = Volume of distribution at steady state in Sprague-Dawley rat at 20 mg/kg, ip measured upto 1440 mins by LC-MS/MS analysis; type: ADME, organism-based; conditions: in vivo, 24 h
[23] = Clearance in Sprague-Dawley rat at 5 mg/kg, iv measured upto 1440 mins by LC-MS/MS analysis; type: ADME, organism-based; conditions: in vivo
[24] = Half life in Sprague-Dawley rat at 5 mg/kg, iv measured upto 1440 mins by LC-MS/MS analysis; type: ADME, organism-based; conditions: in vivo
[25] = Oral bioavailability in Sprague-Dawley rat at 20 mg/kg measured upto 1440 mins by LC-MS/MS analysis; type: ADME, organism-based; conditions: in vivo
[26] = Clearance in Sprague-Dawley rat at 20 mg/kg, ip measured upto 1440 mins by LC-MS/MS analysis; type: ADME, organism-based; conditions: in vivo
[27] = Toxicity in BALB/c nude mouse xenografted with human LNCaP cells assessed as reduction in body weight at 30 mg/kg, ip measured every 2 days for 28 days; type: organism-based; conditions: in vivo, 672 h, time 28 day
[28] = Toxicity in BALB/c mouse assessed as effect on creatinine level at 30 mg/kg, ip measured after 3 days by biochemical analysis; type: organism-based; conditions: in vivo, 72 h, time 3 day

## CNC(=O)c1ccc(N2C(=S)N(c3ccc(C#N)c(C(F)(F)F)c3)C(=O)C2(C)C)cc1F [ENZALUTAMIDE]
LNCaP [1]
  inhibition in vivo at 30 mg/kg: 41.5%
DU-145
  IC50: > 50 µM
LNCaP [2]
  IC50: 13.9 µM
CWR22R
  inhibition in vivo at 30 mg/kg: 39.9%

## N#Cc1ccc(N2C(=O)CN(CCCN3CCCc4ccccc43)C2=S)cc1C(F)(F)F
[3]
  AUC: 805.18 ng·h/mL
[4]
  Vdss: 16.72 L/kg
[5]
  Vd: 6.9 L/kg
[6]
  AUC(0-inf): 3500 ng·h/mL
[7]
  Cmax: 92.1 ng/mL
[8]
  half-life: 3.06 h
[9]
  Activity: Non-Toxic
[10]
  Activity: Non-Toxic
[11]
  bioavailability: 67.2%
[12]
  Activity: Non-Toxic
[13]
  Activity: Non-Toxic
[14]
  Activity: Non-Toxic
[15]
  Activity: Non-Toxic
[16]
  CL: 84.8 mL/min/kg
[17]
  Activity: Non-Toxic
[18]
  Activity: Non-Toxic
[19]
  Activity: Non-Toxic
[20]
  AUC(0-inf): 9160 ng·h/mL
[21]
  Activity: Non-Toxic
[22]
  Vdss: 8.77 L/kg
[23]
  clearance: 15.7 mL/min/kg
[24]
  half-life: 5.02 h
[25]
  bioavailability: 5.74%
[26]
  CL/F: 60.2 mL/min/kg
[27]
  Activity: Non-Toxic
[28]
  Activity: Non-Toxic
